The text below walks through data of US5082771A, “Detecting cells using tellurapyrylium dihydroxides” (Eastman Kodak Company, priority 1989, dated 1992).

The structures appear in SMILES notation.

Data set [1] in a line: Maximum absorption and extinction coefficient of the Te(IV) dihydroxides in water. The conditions noted are these: for extinction coefficient (ε): at λmax. The class given is physicochemical. An excerpt:
The maximum absorption and extinction coefficient for the compounds in water is listed below: […]

Data set [2] deals with E. Coli. Put plainly: Absorption spectra over time of a system comprising E. Coli and a tellurium (IV) dihydroxide (FIG. 1). The class given is cell-based. The conditions noted are these: for absorption maximum: FIG. 1, system comprising E. Coli. An excerpt: FIG. 1 comprises a series of plots showing the change, over time, of the absorption spectrum of a system comprising E. Coli. and a tellurium (IV) dihydroxide. More specifically, the series of plots follows the reduction: [drawing 1] as a function of time.
Over time, as the E. Coli reduces the tellurium (IV) dihydroxide. i.e., the TPDH. the absorption at 510 nm diminishes until it becomes non existent. As the absorption diminishes at 510 nm, a much more intense absorption peak at about 820 nm arises. In other words, the extinction coefficient for the absorption maximum of the TPDH is mu:h less than the extinction coefficient for the absorption maximum for the reduction product. Stated another way, the extinction coefficient for the absorption peak of the reduction product is much greater than the extinction coefficient for the absorption peak of the TPDH.
The time interval between each spectophometric tracing in FIG. 1 is about 30 seconds.

Data set [3] concerns E. Coli. Put plainly: Reduction of Te/Te Dye by suspension of E. Coli cells, change in optical density as a function of time (Example 2). The class given is cell-based. The conditions noted are these: 1 × 10^-4 M, pH about 7.8. An excerpt:
The final concentration of the TPDN was about 1×10^-4 molar after dilution.
The stock solutions of the TPDH can be prepared in a concentration within the range of from about 5×10^-2 and about 5×10^-4 molar.

A short description of data set [4]: Stability (half life) at 37° C. at various pH values. The class given is physicochemical. The source says:
The stability of the dihydroxycompounds used in this invention is generally very good.

In the case of `CC(C)(C)C1=CC(=CC=Cc2cc(C(C)(C)C)[s+]c(C(C)(C)C)c2)C=C(C(C)(C)C)[Te]1(O)O` [Te/S Dye], in data set [1], the “maximum absorption (λmax)” value is reported as 480 nm and the “extinction coefficient (ε)” value is reported as 52,000.

On to `CC(C)(C)C1=CC(=CC=Cc2cc(C(C)(C)C)[se+]c(C(C)(C)C)c2)C=C(C(C)(C)C)[Te]1(O)O` [Te/Se Dye], for which, in data set [1], the “maximum absorption (λmax)” value came to 502 nm and the “extinction coefficient (ε)” value is recorded as 55,000.

Consider `CC(C)(C)C1=CC(=CC=Cc2cc(C(C)(C)C)[te+]c(C(C)(C)C)c2)C=C(C(C)(C)C)[Te]1(O)O` [Te/Te Dye, 4[3[2,6-bis(1,1-dimethylethyl)-tellurinium-4-yl]-2-propenylidene]-1,1-dihydroxy-2,6-bis(1,1-dimethylethyl)-1,1-dihydro-4H-tellurin chloride], for which the “absorption at about 820 nm” value in data set [2] (FIG. 1, before reduction) is recorded as “practically no absorption”. Also, the absorption maximum entry in data set [2] is reported as “about 510 nm”. Further, the “absorption at about 510 nm after reduction by E. Coli” value in data set [2] (over time, tracings about every 30 seconds) is “non existent”. Further, the “Optical Density (O.D.) @ 820 nm” value in data set [3] (10^5 Cells/mL, 0.0 s) stood at 0.05; in data set [3] (10^5 Cells/mL, 60 s) it was 0.15; in data set [3] (10^5 Cells/mL, 120 s), 0.90; in data set [3] (10^5 Cells/mL, 180 s) it was 0.65; in data set [3] (10^5 Cells/mL, 240 s) it was 0.89; in data set [3] (10^5 Cells/mL, 300 s), 0.98. The “Optical Density (O.D.) @ 820 nm” value in data set [3] (10^5 Cells/mL, 360 s) worked out at 1.13; in data set [3] (10^5 Cells/mL, 420 s) it was 1.18; in data set [3] (10^5 Cells/mL, 480 s), 1.23; in data set [3] (10^5 Cells/mL, 540 s), 1.24; in data set [3] (10^6 Cells/mL, 0.0 s), 0.05; in data set [3] (10^6 Cells/mL, 30 s), 0.10. Also, the “Optical Density (O.D.) @ 820 nm” value was 0.32 in data set [3] (10^6 Cells/mL, 60 s); 0.63 in data set [3] (10^6 Cells/mL, 120 s); 0.84 in data set [3] (10^6 Cells/mL, 150 s); 1.15 in data set [3] (10^6 Cells/mL, 210 s); 1.46 in data set [3] (10^6 Cells/mL, 270 s); 1.60 in data set [3] (10^6 Cells/mL, 300 s). In addition, the “Optical Density (O.D.) @ 820 nm” value in data set [3] (10^6 Cells/mL, 330 s) was found to be 1.73; in data set [3] (10^6 Cells/mL, 390 s) it was 2.00. For the same molecule, in data set [1], the “maximum absorption (λmax)” value was determined as 510 nm. Moreover, in data set [1], the “extinction coefficient (ε)” value is 56,000.

With `CC(C)(C)C1=CC(=CC=Cc2cc(C(C)(C)C)[te+]c(C(C)(C)C)c2)C=C(C(C)(C)C)[Te]1` [compound (b), 4-[3-[2,6-bis(1,1-dimethylethyl-4H-tellurin-4-ylidene]-1-propenyl]-2,6-bis(1,1-dimethylethyl) -tellurinium chloride], the absorption maximum entry in data set [2] was “about 820 nm”.

As usually defined, the half-life is how long it takes for the measured level to halve. Low readings indicate fast loss, high ones slow loss. Consider `CC(C)(C)C1=CC(=CC=Cc2cc(C(C)(C)C)[te+]c(C(C)(C)C)c2)C=C(C(C)(C)C)[Te]1(O)O` [drawing 16], for which the half-life in data set [4] (pH 4.58) is 3.5 h; in data set [4] (pH 5.98), 4.5 h; in data set [4] (pH 7.4, pH 7.40) it was 12 h; in data set [4] (pH 8.5, pH 8.50) it was 12 h; in data set [4] (pH 9.03), 8.5 h; in data set [4] (pH 10.2, pH 10.20), 8 h. In data set [4] (pH 11.98), this molecule showed a half-life of 6.3 h.
